Laboratory results taken from PubChem BioAssay (NCI).
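All cell lines were grown in 96-well plates and treated with compound for 48 hours. GI50: concentration for 50% inhibition of growth. Definition used: TGI = concentration required for complete inhibition of growth.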

Legend:
Test in all cases: growth of human tumour cells (NCI), 48 h
SK-MEL-5 melanoma = test system: SK-MEL-5 melanoma
HL-60(TB) leukemia = test system: HL-60(TB) leukemia
CAKI-1 renal = test system: CAKI-1 renal
786-0 renal = test system: 786-0 renal
NCI-H522 lung = test system: NCI-H522 lung
SK-OV-3 ovarian = test system: SK-OV-3 ovarian
U251 CNS = test system: U251 CNS
HS 578T breast = test system: HS 578T breast
PC-3 prostate = test system: PC-3 prostate

Row | Compound | TGI (SK-MEL-5 melanoma) | TGI (HL-60(TB) leukemia) | TGI (CAKI-1 renal) | TGI (786-0 renal) | TGI (NCI-H522 lung) | TGI (SK-OV-3 ovarian) | TGI (U251 CNS) | GI50 (SK-MEL-5 melanoma) | GI50 (HL-60(TB) leukemia) | GI50 (HS 578T breast) | TGI (HS 578T breast) | GI50 (SK-OV-3 ovarian) | GI50 (CAKI-1 renal) | GI50 (786-0 renal) | GI50 (PC-3 prostate) | TGI (PC-3 prostate)
1 | C/C(CCn1[nH]c(=O)ccc1=O)=N\Nc1ccc([N+](=O)[O-])cc1[N+](=O)[O-] | > 100 µM | > 100 µM | > 100 µM | > 100 µM |  |  |  |  |  |  |  |  |  |  |  | 
2 | CC(=N)N(C)O | > 100 µM | > 100 µM |  | > 100 µM | > 100 µM | > 100 µM | > 100 µM |  |  |  |  |  |  |  |  | 
3 | COC(=O)C(C(=O)C(=O)Nc1ccc(OC)cc1[N+](=O)[O-])c1nc2cc(C)c(C)cc2[nH]c1=O (stereo unspecified) | > 100 µM | > 100 µM | > 100 µM | > 100 µM | > 100 µM | > 100 µM | > 100 µM |  |  |  |  |  |  |  |  | 
4 | CC1=C2[C@H](c3ccccc3)C3C=CC2(c2ccccc23)N(C(=O)C(c2ccccc2)c2ccccc2)C1=O (stereo partly specified) | > 100 µM | > 100 µM | > 100 µM | > 100 µM |  | > 100 µM | > 100 µM |  |  |  |  |  |  |  |  | 
5 | Cc1cc(C)nc(NS(=O)(=O)c2ccc(NC(=O)c3ccc(Cl)c4c(Nc5ccc(S(=O)(=O)N=C(N)N)cc5)c5ccccc5nc34)cc2)n1 | > 100 µM | 25.1 µM | > 100 µM | 96.1 µM | 36.1 µM | > 100 µM | > 100 µM |  |  |  |  |  |  |  |  | 
6 | C=C1C(=O)OC2C1C(OC(=O)/C(C)=C\C)CC1(CO1)C1C(O)C=C(C)C21O (stereo unspecified) | 17.7 µM | > 100 µM | 6.36 µM | 8.5 µM | 2.3 µM | 30.5 µM | 24.5 µM |  |  |  |  |  |  |  |  | 
7 | CCOC(=O)c1c2cccccc2n2c(=O)cc(C)nc12 |  | > 100 µM | > 100 µM | > 100 µM | > 100 µM |  | > 100 µM |  |  |  |  |  |  |  |  | 
8 | COc1ccc(/C=c2/sc3n(c2=O)NC(c2ccc(Cl)cc2)NN=3)cc1 (stereo unspecified) | > 100 µM |  | > 100 µM | > 100 µM | > 100 µM | > 100 µM | > 100 µM |  |  |  |  |  |  |  |  | 
9 | CC(=O)C1CCC2C3CC=C4CC(SC(=N)N)CCC4(C)C3CCC12C (stereo unspecified) | 3.01 µM | 4.19 µM | 4.24 µM | 3.29 µM |  | 18 µM |  | 1.65 µM | 1.88 µM | 2.56 µM | 11.3 µM | 4.19 µM | 1.68 µM | 1.64 µM | 1.55 µM | 4.2 µM
10 | CN(C)CCC1(C2=CCCC2)CC/C(=C\c2ccccc2Cl)C1=O (stereo unspecified) | 26.7 µM | 19.6 µM |  | 25.7 µM |  |  | 25.5 µM |  |  |  |  |  |  |  |  | 
11 | CCCCCCCCCOC(=S)NCCCCC | 40.7 µM | 39.5 µM | 73.7 µM | > 100 µM | 46.6 µM | 87.7 µM | 48.6 µM |  |  |  |  |  |  |  |  | 
12 | COC(=O)C(=O)C(C(=O)C=C(C)C)C(=O)C(=O)Nc1nc2ccc([N+](=O)[O-])cc2s1 (stereo unspecified) | > 100 µM | > 100 µM | 94.7 µM | > 100 µM | 78.9 µM | > 100 µM | > 100 µM |  |  |  |  |  |  |  |  | 
13 | COc1cc(CC(C(=O)O)C(=O)O)c(OC)cc1CC(C(=O)O)C(=O)O | > 100 µM | > 100 µM | > 100 µM | > 100 µM | > 100 µM | > 100 µM | > 100 µM |  |  |  |  |  |  |  |  | 
14 | NNC(=O)N/N=C1\C(=O)N(c2nccs2)C(=O)C(=O)C1c1nc2ccccc2s1 (stereo unspecified) |  |  | > 100 µM | > 100 µM |  | > 100 µM | > 100 µM |  |  |  |  |  |  |  |  | 
15 | OC1CCC[C@@H]1Sc1ccccc1 (stereo partly specified) | > 100 µM | > 100 µM | > 100 µM | > 100 µM |  | > 100 µM | > 100 µM |  |  |  |  |  |  |  |  | 
16 | CC(=O)ON(C(C)=O)C1C(COC(c2ccccc2)(c2ccccc2)c2ccccc2)OC2OC3(CCCC3)OC21 (stereo unspecified) | > 100 µM | > 100 µM | > 100 µM | > 75.2 µM | 6.26 µM | > 100 µM | > 100 µM |  |  |  |  |  |  |  |  | 
17 | COc1ccc(NC(=O)CCc2cc(C(C)(C)C)n[nH]2)cc1 | > 100 µM | > 100 µM | > 100 µM | > 100 µM | > 100 µM | > 100 µM | > 100 µM |  |  |  |  |  |  |  |  | 
18 | COc1cc(/C=C\c2ccc(OC(C)=O)cc2)cc(OC)c1OC |  |  | > 100 µM | > 100 µM | > 100 µM | > 100 µM | > 100 µM |  |  |  |  |  |  |  |  | 
19 | CC1=NN(C(=O)c2ccc(Cl)cc2)C(=O)/C1=C/c1ccco1 | > 100 µM | > 100 µM | > 100 µM | > 100 µM | > 100 µM | > 100 µM | > 100 µM |  |  |  |  |  |  |  |  | 
20 | Cc1ccc(/C=C(\C#N)c2ccccc2)cc1 | > 100 µM |  | > 100 µM | > 100 µM | > 100 µM | > 100 µM | > 100 µM |  |  |  |  |  |  |  |  | 
21 | CCCCCCCCCCCCCC(=O)OCC1OC(n2cc(F)c(=O)[nH]c2=O)C(N)C(OC(=O)CCCCCCCCCCCCC)C1O (stereo unspecified) | > 100 µM | > 100 µM | > 100 µM | > 100 µM | > 100 µM | > 100 µM | > 100 µM |  |  |  |  |  |  |  |  | 
